{"source": "patent US20080261811A1", "about": "“Synergistic Mixtures Exhibiting Insecticidal and Fungicidal Action” (Bayer CropScience AG, priority 2004, published 2008)", "key": {"Myzus persicae": {"system": "Myzus persicae", "assay": "Myzus persicae test (cabbage leaf dip)", "type": "in vivo", "settings": "for Kill in % after 6 days: Table A2; for Kill in % after 1 day: Table A1", "source_text": "(§1) The expected activity for a given combination of two active compounds can be calculated (cf. COLBY, S. R.; “Calculating Synergistic and Antagonistic Responses of Herbicide Combinations”, Weeds 15, pages 20-22, 1967):\n(§2) if • X=the kill rate, expressed in % of the untreated control, when employing active compound A at an application rate of m ppm, • Y=the kill rate, expressed in % of the untreated control, when employing active compound B at an application rate of n ppm, • E=the kill rate, expressed in % of the untreated control, when employing active compounds A and B at application rates of m and n ppm, then\n(§3) If the actual insecticidal kill rate is higher than the calculated one, the kill rates of the combination are superadditive, i.e. a synergistic effect is present. In this case, the kill rate that is actually observed has to be higher than the value, calculated using the formula above, for the expected kill rate (E).\n(§4) To produce a suitable preparation of active compound, 1 part by weight of active compound is mixed with the stated amounts of solvent and emulsifier, and the concentrate is diluted with emulsifier-containing water to the desired concentration.\nCabbage leaves (Brassica oleracea) which are heavily infested by the green peach aphid (Myzus persicae) are treated by being dipped into the preparation of active compound of the desired concentration.\nAfter the desired period of time, the kill in % is determined. 100% means that all aphids have been killed; 0% means that none of the aphids have been killed. The determined kill rates are entered into Colby's formula."}, "Phaedon cochleariae": {"system": "Phaedon cochleariae", "assay": "Phaedon cochleariae larvae test (cabbage leaf dip)", "type": "in vivo", "settings": "for Kill in % after 6 days: Table B2; for Kill in % after 4 days: Table B1", "source_text": "as §1, §2, §3, §4\nCabbage leaves (Brassica oleracea) are treated by being dipped into the preparation of active compound of the desired concentration and populated with larvae of the mustard beetle (Phaedon cochleariae) while the leaves are still moist.\nAfter the desired period of time, the kill in % is determined. 100% means that all beetle larvae have been killed; 0% means that none of the beetle larvae have been killed. The determined kill rates are entered into Colby's formula."}}}
{"smiles": "COC(=O)[C@@H](C)N(C(=O)Cc1ccccc1)c1c(C)cccc1C", "note": "[benalaxyl M, methyl N-(phenylacetyl)-N-(2,6-xylyl)-D-alaninate]", "values": [{"measurement": "Kill in % after 6 days", "setting": "Myzus persicae; 500 ppm", "value": 0, "unit": "%"}, {"measurement": "Kill in % after 6 days", "setting": "Phaedon cochleariae; 500 ppm", "value": 0, "unit": "%"}]}
{"smiles": "COCC(=O)N(c1c(C)cccc1C)[C@H](C)C(=O)OC", "note": "[metalaxyl M]", "values": [{"measurement": "Kill in % after 1 day", "setting": "Myzus persicae; 500 ppm", "value": 0, "unit": "%"}, {"measurement": "Kill in % after 4 days", "setting": "Phaedon cochleariae; 500 ppm", "value": 0, "unit": "%"}]}
{"smiles": "COC(=O)C(C)N(C(=O)Cc1ccccc1)c1c(C)cccc1C", "note": "(stereo not shown) [benalaxyl]", "values": [{"measurement": "Kill in % after 6 days", "setting": "Phaedon cochleariae; 500 ppm", "value": 0, "unit": "%"}]}
{"smiles": "CN/C(=N\\[N+](=O)[O-])NCc1cnc(Cl)s1", "note": "[clothianidin]", "values": [{"measurement": "Kill in % after 1 day", "setting": "Myzus persicae; 0.8 ppm", "value": 45, "unit": "%"}, {"measurement": "Kill in % after 6 days", "setting": "Myzus persicae; 0.8 ppm", "value": 35, "unit": "%"}, {"measurement": "Kill in % after 4 days", "setting": "Phaedon cochleariae; 4 ppm", "value": 40, "unit": "%"}, {"measurement": "Kill in % after 6 days", "setting": "Phaedon cochleariae; 4 ppm", "value": 60, "unit": "%"}]}
{"smiles": "COCC(=O)N(c1c(C)cccc1C)C(C)C(=O)OC", "note": "(stereo not shown) [metalaxyl]", "values": [{"measurement": "Kill in % after 1 day", "setting": "Myzus persicae; 500 ppm", "value": 0, "unit": "%"}]}
